Tests used:
[1] = Subchronic OEA administration in rats (7 days): food intake, body weight, water intake; type: in vivo, rat; settings: 5 mg per kg i.p. daily for seven days
Method: Feeding experiments. Acute experiments. Food intake was measured in 24-h food-deprived rats (Navarro, et al., J. Neurochem., 67:1982-1991 (1996)), administering drugs 15 min before food presentation. Subchronic experiments. Ad libitum fed rats received vehicle injections for three days. On day four, the animals were divided in two equal groups and gave them daily injections of vehicle or OEA (5 mg per kg at 1900 h) for 7 consecutive days, while measuring body weight, food intake and water intake.
In this example, OEA was subchronically administered to rats.

c-fos mRNA = c-fos mRNA in situ hybridization in rat brain; type: in vivo; settings: 10 mg per kg i.p., 60 min; PVN, supraoptic nucleus, NST
Method: In situ hybridization. Rats were accustomed to the handling and injection procedure for five days. On day six, vehicle or drug OEA (10 mg per kg, i.p.), or oleic acid (10 mg per kg) was administered, and the rats killed 60 min later by decapitation under anesthesia. In situ hybridization analyses were conducted using ^35S-labeled cRNA probes for c-fos (Guthrie et al., Proc. Natl. Acad. Sci. U.S.A., 90:3329-3333 (1993)) and choline acetyl transferase (ChAT) (Lauterborn et al., Brain Res. Mol. Brain Res., 17:59-69 (1993)). Average hybridization densities were determined from at least three tissue sections per rat. Statistical significance was evaluated using one-way analysis of variance (ANOVA) followed by the Tukey-Kramer post-hoc test for paired comparisons.
The compounds of the invention may use peripheral sensory inputs to suppress appetite. Peripheral sensory inputs related to appetite suppression recruit several CNS structures, which include the nucleus of the solitary tract (NST) in the brainstem and the arcuate and paraventricular (PVN) Nuclei in the hypothalamus (Schwartz et al., Nature, 404:661-671 (2000)). To identify the brain pathways engaged during OEA-induced hypophagia, mRNA levels for the activity regulated gene c-fos (Curran et al., Oncogene, 2:79-84 (1987)) were mapped by in situ hybridization after systemic administration of OEA, oleic acid or vehicle. […]

[2] = Circulating OEA levels after OEA administration (HPLC/MS); type: in vivo; settings: rat, plasma, ip; 1 hr after 5 mg per kg i.p., rats; baseline 10.1±1.1
Method: HPLC/MS analyses. Plasma was prepared from blood obtained by cardiac puncture (Giuffrida, et al., Anal. Biochem., 280:87-93 (2000)) and CSF was collected from the cisterna magna using a 27G ½ needle (Precisionglide, USA). FAEs and NAPE were extracted from tissues with methanol/chloroform and fractionated by column chromatography (Giuffrida, et al., “Lipid Second Messengers” (ed. Laychock, S. G. & Rubin, R. P.) 113-133 (CRC Press LLC, Boca Raton, Fla., 1998)). FAEs were quantified by HPLC/MS, using an isotope dilution method (Giuffrida, et al., Anal. Biochem., 280:87-93 (2000)). Individual NAPE species were identified and quantified by HPLC/MS, using an external standard method (Calignano, et al., Nature, 408:96-101 (2000)).
OEA elicits hypophagia at physiologically relevant doses. […] Thus, the concentrations reached by OEA in blood during starvation can be sufficient to elicit notable behavioral responses.

Soleus muscle = experiment: [14C]oleate oxidation to CO2 in soleus muscle; type: cell-based, rat; settings: 10 μM, 30 min incubation
Source text: This example illustrates the effect of OEA on fat metabolism and methods for studying the same. Oleoylethanolamide (OEA) decreases body weight not only by suppressing appetite, but also by possibly enhancing body fat catabolism. The effects of OEA on fatty acid oxidation in major body-fat burning tissues (soleus muscle, liver, cultured cardiac myocytes and astrocytes) was examined. […] In addition, OEA induces a significant mobilization of triacylglycerol stores from primary white adipose tissue cells. Table 4 details the methods and effects of OEA on fatty acid oxidation in these cells. Structure-activity relationship experiments provide evidence that the effect of OEA on skeletal muscle fatty acid oxidation is specific (FIG. 8).

[3] = system: retinoid X receptor (RXR); experiment: GAL4 chimeric receptor transactivation assay in HeLa cells, RXR; type: cell-based, human
Method: Transactivator plasmids pFA-PPARα, pFA-PPARδ, pFA-PPARγ and pFA-RXR, which encoded for the […] Of hPPARα ? ((499-1404), hPPARδ (412-1320), hPPARγ (610-1434) and hRXR (402-1389) fused to the DNA-binding domain (residues 1-147) Of yeast GAL4 under control of the human cytomegalovirus (CMV) promoter were generated. The plasmids contained a neomycin-resistance gene to provide stable selection with G418 (200 μg-ml^−1; Calbiochem). The HeLa cells were cultured in Dulbecco's-modified Eagles's medium (DMEM) supplemented with fetal bovine serum (10%). The cells were transfected with Fugene 6 (3 μl, Roche) Containing the pFR-luc plasmid (1 μg, Stratagene). Eighteen hours following transfection, the culture media was replaced with supplemented DMEM containing hygromycin (100 μg-ml^−1, Calbiochem). After 4 weeks in culture, the surviving clones were isolated and analyzed by luciferase assay. […] The cells were cultured in supplemented DMEM containing hygromycin and G418. For transactivation assays, cells were seeded in 6-well plates (50,000 cells per well) and incubated for 7 hours in supplemented DMEM containing hygromycin and G418, plus appropriate concentrations of test compounds. Dual-luciferase reporter assay system (Promega) and an MLX Microtiter® plate luminometer (Dynex) were used to determine luciferase activity in cell lysates. […]

**Q.** What does the source list for `CCCCCCCC/C=C\CCCCCCCC(=O)NCCO` [OEA, Z-2-hydroxyethyl octadec-9-enamide]?
**A.** cumulative food intake [1]: small, but significant decrease; water intake [1]: did not affect; weight gain [1]: profound inhibition of weight gain; c-fos mRNA levels in brain regions (c-fos mRNA): highly localized increase; concentration at 1 hr [2]: 16.1 ± 2.6 nM; Stimulatory effect of 10 μM OEA on [14C]oleate oxidation to CO2 (Soleus muscle): 36 ± 10 (n = 4) %; effect on RXR [3]: no effect

Reference: patent publication US20050101542A1, “Combination therapy for controlling appetites” (Regents of the University of California, priority 2002, published 2005)
